# Literature values, collected in article PMC6768323, “Adverse Maternal, Fetal, and Postnatal Effects of Hexafluoropropylene Oxide Dimer Acid (GenX) from Oral Gestational Exposure in Sprague-Dawley Rats” (Environmental Health Perspectives, 2019).
# Where two headings read alike, the source gives them in different places.
# System: rat
# Conditions: cited from earlier work
smiles,measurement,setting,value
"O=S(=O)(O)C(F)(F)C(F)(F)C(F)(F)C(F)(F)C(F)(F)C(F)(F)C(F)(F)C(F)(F)F [PFOS, perfluorooctane sulfonate]",dose with increased neonatal mortality,ref Lau et al. 2003,≥ 3 mg/kg
same,dose with lower pup body weights,ref Lau et al. 2003,≥ 2 mg/kg
same,dose with neonatal mortality,"ref Luebker et al. 2005a, 2005b",≥ 1.6 mg/kg
same,dose with lower pup body weights,ref Luebker et al. 2005b,≥ 0.4 mg/kg
